Results published in US5955440A, “Macrolide LHRH antagonists” (Abbott Laboratories, priority 1998, dated 1999).

Experiments:
[1] = target: T1, LHRH rat pituitary receptor (Rattus norvegicus, UniProt P30969); experiment: LHRH rat pituitary receptor binding (pKI); details: negative logarithm of the equilibrium dissociation constants, Table 1, read-out: receptor binding affinity (pKI) (converted)
T1 construct: from tissue; host or cells: rat pituitary
T1 sequence (P30969 1-327): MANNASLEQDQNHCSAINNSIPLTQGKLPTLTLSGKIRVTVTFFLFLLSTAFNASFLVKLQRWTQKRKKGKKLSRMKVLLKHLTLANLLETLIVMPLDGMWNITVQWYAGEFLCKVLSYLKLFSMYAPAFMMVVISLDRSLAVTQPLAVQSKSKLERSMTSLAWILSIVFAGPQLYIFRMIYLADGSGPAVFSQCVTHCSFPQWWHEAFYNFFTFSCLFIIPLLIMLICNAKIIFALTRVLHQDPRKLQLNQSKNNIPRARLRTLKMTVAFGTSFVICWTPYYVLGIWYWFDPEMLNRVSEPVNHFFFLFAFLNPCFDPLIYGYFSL
Experimental: (§1) Representative compounds of the present invention were evaluated in in vitro tests for LHRH rat pituitary receptor binding (pKI) and for LH inhibition from rat pituitary cells for antagonist potency (pA2). The tests employed the methods detailed in F. Haviv, et al. J. Med. Chem., 32: 2340-2344 (1989). The receptor binding affinity (pKI) is the negative logarithm of the equilibrium dissociation constants.

[2] = target: T2, rat pituitary cells (Rattus norvegicus, UniProt P30969); experiment: LH inhibition from rat pituitary cells, antagonist potency (pA2); format: cell-based; details: negative log of antagonist concentration shifting the leuprolide response curve to two-fold higher concentration, Table 2
T2 construct: endogenous in cells; host or cells: rat pituitary cells
T2 sequence (P30969 1-327): T1 sequence (P30969 1-327)
Experimental: as §1
The pA2 value is the negative logarithm of the concentration of antagonist which shifts the response curve produced by the agonist leuprolide to two-fold higher concentration. Leuprolide is the LHRH agonist having the structure pyro-Glu^1 -His^2 -Trp^3 -Ser^4 -Tyr^5 -D-Leu^6 -Leu^7 -Arg^8 -Pro^9 -NHEt and is disclosed and claimed in U.S. Pat. No. 4,005,063. Typically pA2 values of 7.0 or greater are indicative of good LHRH antagonist potency.

| Ki [1] | Kb [2] | Structure (SMILES) |
| --- | --- | --- |
| 0.269 nM | 5.75 nM | CC[C@H]1OC(=O)[C@H](C)[C@@H](O[C@H]2C[C@@](C)(OC)[C@@H](O)[C@H](C)O2)[C@H](C)[C@@H](O[C@@H]2O[C@H](C)C[C@H](N(C)C3CCCC3)[C@H]2O)[C@](C)(OC)C[C@@H](C)C(=O)[C@H](C)[C@H]2N(CCc3ccc(F)c(F)c3)C(=O)O[C@]12C [Example 31, 3'-N-Desmethyl-3'-N-cyclopentyl-11-deoxy-11-[carboxy-(3,4-difluorophenethylamino)]-6-O-methyl-erythromycin A 11,12-(cyclic carbamate)] |
| 0.0832 nM | 26.3 nM | CCCN(C)[C@H]1C[C@@H](C)O[C@@H](O[C@@H]2[C@@H](C)[C@H](O[C@H]3C[C@@](C)(OC)[C@@H](O)[C@H](C)O3)[C@@H](C)C(=O)O[C@H](CC)[C@@]3(C)OC(=O)N(CCc4ccc(F)c(F)c4)[C@@H]3[C@@H](C)C(=O)[C@H](C)C[C@@]2(C)OC)[C@@H]1O [Example 32, 3'-N-Desmethyl-3'-N-n-propyl-11-deoxy-11-[carboxy-(3,4-difluorophenethylamino)]-6-O-methyl-erythromycin A 11,12-(cyclic carbamate)] |
| 0.676 nM | 3.98 nM | CC[C@H]1OC(=O)[C@H](C)[C@@H](O[C@H]2C[C@@](C)(OC)[C@@H](O)[C@H](C)O2)[C@H](C)[C@@H](O[C@@H]2O[C@H](C)C[C@H](N(C)CC3CC3)[C@H]2O)[C@](C)(OC)C[C@@H](C)C(=O)[C@H](C)[C@H]2N(CCc3ccc(F)c(F)c3)C(=O)O[C@]12C [Example 33, 3'-N-Desmethyl-3'-N-cyclopropylmethyl-11-deoxy-11-[carboxy-(3,4-difluorophenethylamino)]-6-O-methyl-erythromycin A 11,12-(cyclic carbamate)] |
